± gives the standard deviation of the averaged measurements.
Assays:
Assay in all cases: activity (1 - area under the dose-response curve within the screened range) (fraction); higher = more sensitive
Settings in all cases: treatment time: 72 h
[1] = tested on: HCM-SANG-0291-C15 (oesophageal cancer organoid)
Experimental: (§1)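 Patient-derived cancer organoids (colorectal and oesophageal, HCM-SANG models) were grown for up to 6 months in 5% or 80% ECM (BME-2), then seeded in 384-well plates on an ECM layer and treated with 72 compounds for 3 days. Each compound used a 7-point half-log dilution series spanning a 1000-fold range, in technical triplicate and biological duplicate. Dose-response curves were fitted with a non-linear mixed effects model; fits with RMSE > 0.3 were removed, and activity = 1 - AUC within the screened dose range (0 = no activity, 1 = maximum).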

[2] = tested on: HCM-SANG-0266-C20 (colorectal cancer organoid)
Experimental: as §1

[3] = tested on: HCM-SANG-0270-C20 (colorectal cancer organoid)
Experimental: as §1

[4] = tested on: HCM-SANG-0532-C20 (colorectal cancer organoid)
Experimental: as §1

[5] = ECM percentage in culture prior to screening 5 %
[6] = ECM percentage in culture prior to screening 80 %

Row | SMILES | activity [1, 5] | activity [1, 6] | activity [2, 5] | activity [2, 6] | activity [3, 5] | activity [3, 6] | activity [4, 5] | activity [4, 6]
1 | Cc1cc(Nc2cc(N3CCN(C)CC3)nc(Sc3ccc(NC(=O)C4CC4)cc3)n2)n[nH]1 [Tozasertib] | 0.0578 ± 0.037 | 0.0466 ± 0.014 | 0.222 ± 0.09 | 0.228 ± 0.033 | 0.0983 ± 0.062 | 0.0668 ± 0.034 | 0.16 ± 0.076 | 0.123 ± 0.046
2 | CN(C)C/C=C/C(=O)Nc1cc2c(Nc3ccc(F)c(Cl)c3)ncnc2cc1O[C@H]1CCOC1 [Afatinib] | 0.414 ± 0.064 | 0.316 ± 0.06 | 0.308 ± 0.13 | 0.217 ± 0.11 | 0.311 ± 0.11 | 0.153 ± 0.13 | 0.171 ± 0.1 | 0.243 ± 0.07
3 | O=C1NC(=NCc2cccs2)S/C1=C\c1ccc2ncccc2c1 [RO-3306] | 0.0636 ± 0.017 | 0.0709 ± 0.026 | 0.123 ± 0.017 | 0.152 ± 0.035 | 0.0909 ± 0.041 | 0.0974 ± 0.033 | 0.117 ± 0.033 | 0.108 ± 0.016
4 | COc1cc(Nc2ncc3c(n2)-c2ccc(Cl)cc2C(c2c(F)cccc2OC)=NC3)ccc1C(=O)O [Alisertib] | 0.0593 ± 0.019 | 0.0714 ± 0.026 | 0.266 ± 0.08 | 0.31 ± 0.081 | 0.104 ± 0.078 | 0.124 ± 0.06 | 0.185 ± 0.063 | 0.148 ± 0.027
5 | CC/C(=C(\c1ccccc1)c1ccc(OCCN(C)C)cc1)c1ccccc1 [Tamoxifen] | 0.0279 ± 0.013 | 0.0235 ± 0.0053 | 0.0883 ± 0.053 | 0.0314 ± 0.011 | 0.0375 ± 0.013 | 0.0425 ± 0.025 | 0.0364 ± 0.025 | 0.0524 ± 0.021
6 | CC1(C)CCC(CN2CCN(c3ccc(C(=O)NS(=O)(=O)c4ccc(NCC5CCOCC5)c([N+](=O)[O-])c4)c(Oc4cnc5[nH]ccc5c4)c3)CC2)=C(c2ccc(Cl)cc2)C1 [Venetoclax] | 0.0236 ± 0.007 | 0.0311 ± 0.022 | 0.0407 ± 0.02 | 0.0384 ± 0.018 | 0.0303 ± 0.0092 | 0.0357 ± 0.029 | 0.0233 ± 0.0047 | 0.0331 ± 0.0083
7 | O=C(CCCCCCC(=O)Nc1ccccc1)NO [Vorinostat] | 0.232 ± 0.021 | 0.222 ± 0.03 | 0.225 ± 0.032 | 0.172 ± 0.032 | 0.163 ± 0.017 | 0.153 ± 0.028 | 0.132 ± 0.022 | 0.211 ± 0.034
8 | O=C(O)C(=O)O.[NH-][C@@H]1CCCC[C@H]1[NH-].[Pt+2] [Oxaliplatin] | 0.0391 ± 0.022 | 0.0459 ± 0.025 | 0.0673 ± 0.036 | 0.0486 ± 0.022 | 0.0594 ± 0.018 | 0.0493 ± 0.038 | 0.0448 ± 0.016 | 0.0692 ± 0.031
9 | O=C(O)C1(C(=O)O)CCC1.[NH2-].[NH2-].[Pt+2] [Carboplatin] | 0.0362 ± 0.017 | 0.0271 ± 0.011 | 0.0268 ± 0.0076 | 0.0392 ± 0.024 | 0.0338 ± 0.02 | 0.0325 ± 0.013 | 0.0573 ± 0.015 | 0.0352 ± 0.013
10 | C[C@@H](Oc1cc(-c2cnn(C3CCNCC3)c2)cnc1N)c1c(Cl)ccc(F)c1Cl [Crizotinib] | 0.0562 ± 0.022 | 0.065 ± 0.022 | 0.144 ± 0.035 | 0.0852 ± 0.034 | 0.0695 ± 0.034 | 0.0648 ± 0.056 | 0.101 ± 0.068 | 0.154 ± 0.04
11 | CC(=O)O[C@H]1C(=O)[C@@]2(C)[C@H]([C@H](OC(=O)c3ccccc3)[C@]3(O)C[C@H](OC(=O)[C@H](O)[C@@H](NC(=O)c4ccccc4)c4ccccc4)C(C)=C1C3(C)C)[C@]1(OC(C)=O)CO[C@@H]1C[C@@H]2O [Paclitaxel] | 0.246 ± 0.044 | 0.27 ± 0.066 | 0.331 ± 0.06 | 0.317 ± 0.067 | 0.223 ± 0.051 | 0.218 ± 0.084 | 0.138 ± 0.058 | 0.256 ± 0.031
12 | CS(=O)(=O)CCNCc1ccc(-c2ccc3ncnc(Nc4ccc(OCc5cccc(F)c5)c(Cl)c4)c3c2)o1 [Lapatinib] | 0.207 ± 0.045 | 0.189 ± 0.022 | 0.21 ± 0.071 | 0.132 ± 0.082 | 0.157 ± 0.057 | 0.106 ± 0.073 | 0.143 ± 0.069 | 0.205 ± 0.052
13 | CNC(=O)c1cc(Oc2ccc(NC(=O)Nc3ccc(Cl)c(C(F)(F)F)c3)cc2)ccn1 [Sorafenib] | 0.0375 ± 0.016 | 0.0266 ± 0.009 | 0.122 ± 0.014 | 0.106 ± 0.013 | 0.0957 ± 0.011 | 0.102 ± 0.068 | 0.0823 ± 0.0072 | 0.123 ± 0.033
14 | CC[C@@]1(O)C(=O)OCc2c1cc1n(c2=O)Cc2cc3ccccc3nc2-1 [Camptothecin] | 0.262 ± 0.021 | 0.258 ± 0.022 | 0.169 ± 0.031 | 0.147 ± 0.071 | 0.133 ± 0.028 | 0.0946 ± 0.022 | 0.106 ± 0.034 | 0.156 ± 0.023
15 | Cn1ncnc1[C@H]1c2n[nH]c(=O)c3cc(F)cc(c23)N[C@@H]1c1ccc(F)cc1 [Talazoparib] | 0.249 ± 0.036 | 0.275 ± 0.045 | 0.0908 ± 0.022 | 0.0937 ± 0.043 | 0.0426 ± 0.031 | 0.0374 ± 0.026 | 0.0688 ± 0.05 | 0.0443 ± 0.014
16 | CC[C@@H]1C(=O)N(C)c2cnc(Nc3ccc(C(=O)NC4CCN(C)CC4)cc3OC)nc2N1C1CCCC1 [BI-2536] | 0.429 ± 0.043 | 0.464 ± 0.06 | 0.439 ± 0.041 | 0.436 ± 0.036 | 0.305 ± 0.17 | 0.311 ± 0.11 | 0.292 ± 0.087 | 0.335 ± 0.046
17 | CC(C)C[C@H](NC(=O)[C@H](Cc1ccccc1)NC(=O)c1cnccn1)B(O)O [Bortezomib] | 0.208 ± 0.027 | 0.234 ± 0.034 | 0.201 ± 0.023 | 0.228 ± 0.015 | 0.16 ± 0.023 | 0.167 ± 0.03 | 0.201 ± 0.028 | 0.212 ± 0.031
18 | CNC(=O)c1ccccc1Sc1ccc2c(/C=C/c3ccccn3)n[nH]c2c1 [Axitinib] | 0.0739 ± 0.021 | 0.056 ± 0.023 | 0.147 ± 0.033 | 0.143 ± 0.047 | 0.125 ± 0.03 | 0.109 ± 0.037 | 0.112 ± 0.021 | 0.135 ± 0.035
19 | CCNC(=O)c1noc(-c2cc(C(C)C)c(O)cc2O)c1-c1ccc(CN2CCOCC2)cc1 [Luminespib] | 0.0294 ± 0.011 | 0.0466 ± 0.038 | 0.319 ± 0.046 | 0.322 ± 0.024 | 0.111 ± 0.061 | 0.0622 ± 0.041 | 0.338 ± 0.087 | 0.291 ± 0.014
20 | Cn1ncc(Cl)c1-c1cc(C(=O)N[C@H](CN)Cc2ccc(F)c(F)c2)oc1Cl [Uprosertib] | 0.0195 ± 0.0032 | 0.0257 ± 0.018 | 0.218 ± 0.089 | 0.183 ± 0.08 | 0.0769 ± 0.057 | 0.0584 ± 0.038 | 0.177 ± 0.14 | 0.159 ± 0.027
21 | CS(=O)(=O)N1CCN(Cc2cc3nc(-c4cccc5[nH]ncc45)nc(N4CCOCC4)c3s2)CC1 [Pictilisib] | 0.0595 ± 0.032 | 0.0514 ± 0.019 | 0.198 ± 0.059 | 0.152 ± 0.068 | 0.0973 ± 0.037 | 0.0554 ± 0.033 | 0.12 ± 0.07 | 0.155 ± 0.039
22 | COc1cccc2cc(-c3nc([C@H]4CC[C@H](C(=O)O)CC4)n4ncnc(N)c34)[nH]c12 [OSI-027] | 0.0395 ± 0.012 | 0.032 ± 0.014 | 0.141 ± 0.054 | 0.0937 ± 0.059 | 0.0587 ± 0.034 | 0.0504 ± 0.036 | 0.0577 ± 0.024 | 0.0906 ± 0.013
23 | CN(C)CCCOc1ccc(-c2ccc3ncc4c(c3c2)n(C2CCOCC2)c(=O)n4C)cn1 [AZD0156] | 0.0259 ± 0.013 | 0.0316 ± 0.022 | 0.0443 ± 0.024 | 0.0475 ± 0.024 | 0.0254 ± 0.013 | 0.0244 ± 0.0078 | 0.0433 ± 0.022 | 0.0427 ± 0.017
24 | Nc1nc2[nH]cc(CCc3ccc(C(=O)N[C@@H](CCC(=O)O)C(=O)O)cc3)c2c(=O)[nH]1 [Pemetrexed] | 0.0737 ± 0.036 | 0.0434 ± 0.025 | 0.0697 ± 0.056 | 0.0926 ± 0.047 | 0.117 ± 0.049 | 0.164 ± 0.1 | 0.0604 ± 0.023 | 0.0425 ± 0.012
25 | Cc1nc(NC(=O)N2CCC[C@H]2C(N)=O)sc1-c1ccnc(C(C)(C)C(F)(F)F)c1 [Alpelisib] | 0.0264 ± 0.0063 | 0.0261 ± 0.011 | 0.13 ± 0.052 | 0.0656 ± 0.019 | 0.036 ± 0.027 | 0.0216 ± 0.0057 | 0.0918 ± 0.087 | 0.0904 ± 0.033
26 | Cc1nc(Nc2ncc(C(=O)Nc3c(C)cccc3Cl)s2)cc(N2CCN(CCO)CC2)n1 [Dasatinib] | 0.0426 ± 0.021 | 0.0463 ± 0.017 | 0.129 ± 0.069 | 0.0743 ± 0.054 | 0.0518 ± 0.018 | 0.045 ± 0.018 | 0.0937 ± 0.048 | 0.0525 ± 0.021
27 | Nc1ccn([C@@H]2O[C@H](CO)[C@@H](O)C2(F)F)c(=O)n1 [Gemcitabine] | 0.813 ± 0.021 | 0.801 ± 0.049 | 0.624 ± 0.097 | 0.465 ± 0.13 | 0.337 ± 0.13 | 0.234 ± 0.17 | 0.247 ± 0.042 | 0.423 ± 0.04
28 | Cc1nc(-c2cn3c(n2)-c2ccc(-c4cnn(C(C)(C)C(N)=O)c4)cc2OCC3)n(C(C)C)n1 [Taselisib] | 0.0465 ± 0.018 | 0.0601 ± 0.017 | 0.413 ± 0.13 | 0.263 ± 0.14 | 0.0832 ± 0.048 | 0.0597 ± 0.055 | 0.158 ± 0.12 | 0.249 ± 0.059
29 | Cn1cc(C2=C(c3ccc(Cl)cc3Cl)C(=O)NC2=O)c2ccccc21 | 0.0549 ± 0.019 | 0.0522 ± 0.022 | 0.0916 ± 0.037 | 0.0697 ± 0.056 | 0.0629 ± 0.02 | 0.0482 ± 0.021 | 0.0778 ± 0.033 | 0.0951 ± 0.05
